# Measured values published in US20260297060A1, “COMPOUNDS FOR THE DEGRADATION OF MUTANT BRAF” (C4 THERAPEUTICS, INC., priority 2023, published 2026).
# Read-outs that look alike come from different tables or passages of the source.
# Molecular target: T1, BRAF V600E (Homo sapiens, UniProt P15056+Q96SW2, V600E)
# T1 construct: knock-in of the HiBiT tag to the endogenous BRAF V600E locus; host or cells: A375.10 (A375 clonal line, CRISPR HiBiT knock-in at the endogenous BRAF V600E locus)
# Experiment: BRAF V600E HiBiT Degradation Assay
# Assay type: cell-based
# Summary of the method: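 Endogenous HiBiT knock-in on BRAF V600E in A375 cells (clone A375.10); 11-point half-log series, top 10 μM, 2, 6 or 24 h at 37° C. Lytic HiBiT luminescence, background-subtracted, normalized to DMSO; 4-parameter fit gives DC50, Emax (residual protein) and IP (inflection point).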
# [1] = A375.10 cells, BRAF V600E, 2 hours, inflection point, read-out: HiBiT-Degradation A375.10 BRAF 2 hours IP
# [2] = A375.10 cells, BRAF V600E, 2 hours, read-out: HiBiT-Degradation A375.10 BRAF 2 hours DC50
# [3] = A375.10 cells, BRAF V600E, 2 hours, residual protein remaining, read-out: HiBiT-Degradation A375.10 BRAF 2 hours Emax
# [4] = A375.10 cells, BRAF V600E, 6 hours, inflection point, read-out: HiBiT-Degradation A375.10 BRAF 6 hours IP
# [5] = A375.10 cells, BRAF V600E, 6 hours, read-out: HiBiT-Degradation A375.10 BRAF 6 hours DC50
# [6] = A375.10 cells, BRAF V600E, 6 hours, residual protein remaining, read-out: HiBiT-Degradation A375.10 BRAF 6 hours Emax
# [7] = A375.10 cells, HiBiT, BRAF V600E, 24 hours, read-out: HiBiT-Degradation A375.10 BRAF 24 hours DC50
# [8] = A375.10 cells, HiBiT, BRAF V600E, 24 hours, read-out: HiBiT-Degradation A375.10 BRAF 24 hours Emax
# [9] = A375.10 cells, HiBiT, BRAF V600E, 24 hours, read-out: HiBiT-Degradation A375.10 BRAF 24 hours IP
# T1 sequence (P15056 whole entry V600E): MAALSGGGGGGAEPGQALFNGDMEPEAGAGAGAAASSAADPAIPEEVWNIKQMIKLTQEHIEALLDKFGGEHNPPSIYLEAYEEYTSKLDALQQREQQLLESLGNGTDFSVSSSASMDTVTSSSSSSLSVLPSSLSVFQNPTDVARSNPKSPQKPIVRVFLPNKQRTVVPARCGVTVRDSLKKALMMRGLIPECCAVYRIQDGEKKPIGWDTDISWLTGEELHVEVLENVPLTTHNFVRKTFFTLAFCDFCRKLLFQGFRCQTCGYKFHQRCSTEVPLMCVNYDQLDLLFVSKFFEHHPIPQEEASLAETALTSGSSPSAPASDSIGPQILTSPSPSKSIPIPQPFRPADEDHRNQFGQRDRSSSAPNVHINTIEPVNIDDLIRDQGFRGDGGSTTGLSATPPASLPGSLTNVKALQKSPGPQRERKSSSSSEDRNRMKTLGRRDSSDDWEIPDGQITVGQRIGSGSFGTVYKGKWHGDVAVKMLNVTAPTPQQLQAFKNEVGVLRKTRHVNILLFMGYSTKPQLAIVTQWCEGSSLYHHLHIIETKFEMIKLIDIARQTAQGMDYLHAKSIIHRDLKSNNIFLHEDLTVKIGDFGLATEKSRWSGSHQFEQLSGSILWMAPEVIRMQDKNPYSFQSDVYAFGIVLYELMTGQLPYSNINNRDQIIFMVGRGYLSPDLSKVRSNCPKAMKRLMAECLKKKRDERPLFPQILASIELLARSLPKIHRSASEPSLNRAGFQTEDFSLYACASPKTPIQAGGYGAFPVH
# T1 sequence (Q96SW2 whole entry): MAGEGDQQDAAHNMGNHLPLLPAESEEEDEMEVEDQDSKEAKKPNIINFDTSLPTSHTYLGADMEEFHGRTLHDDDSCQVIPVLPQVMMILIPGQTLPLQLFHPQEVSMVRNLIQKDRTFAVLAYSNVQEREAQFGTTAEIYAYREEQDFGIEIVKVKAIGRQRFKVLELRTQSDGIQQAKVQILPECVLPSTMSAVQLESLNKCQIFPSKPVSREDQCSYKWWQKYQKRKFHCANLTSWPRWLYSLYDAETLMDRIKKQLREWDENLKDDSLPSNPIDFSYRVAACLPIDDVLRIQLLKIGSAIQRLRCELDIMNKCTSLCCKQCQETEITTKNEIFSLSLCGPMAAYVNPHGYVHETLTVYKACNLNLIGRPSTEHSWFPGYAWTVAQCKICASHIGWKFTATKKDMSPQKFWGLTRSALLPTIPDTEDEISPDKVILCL
# T1 sequence (Q16531 whole entry partner): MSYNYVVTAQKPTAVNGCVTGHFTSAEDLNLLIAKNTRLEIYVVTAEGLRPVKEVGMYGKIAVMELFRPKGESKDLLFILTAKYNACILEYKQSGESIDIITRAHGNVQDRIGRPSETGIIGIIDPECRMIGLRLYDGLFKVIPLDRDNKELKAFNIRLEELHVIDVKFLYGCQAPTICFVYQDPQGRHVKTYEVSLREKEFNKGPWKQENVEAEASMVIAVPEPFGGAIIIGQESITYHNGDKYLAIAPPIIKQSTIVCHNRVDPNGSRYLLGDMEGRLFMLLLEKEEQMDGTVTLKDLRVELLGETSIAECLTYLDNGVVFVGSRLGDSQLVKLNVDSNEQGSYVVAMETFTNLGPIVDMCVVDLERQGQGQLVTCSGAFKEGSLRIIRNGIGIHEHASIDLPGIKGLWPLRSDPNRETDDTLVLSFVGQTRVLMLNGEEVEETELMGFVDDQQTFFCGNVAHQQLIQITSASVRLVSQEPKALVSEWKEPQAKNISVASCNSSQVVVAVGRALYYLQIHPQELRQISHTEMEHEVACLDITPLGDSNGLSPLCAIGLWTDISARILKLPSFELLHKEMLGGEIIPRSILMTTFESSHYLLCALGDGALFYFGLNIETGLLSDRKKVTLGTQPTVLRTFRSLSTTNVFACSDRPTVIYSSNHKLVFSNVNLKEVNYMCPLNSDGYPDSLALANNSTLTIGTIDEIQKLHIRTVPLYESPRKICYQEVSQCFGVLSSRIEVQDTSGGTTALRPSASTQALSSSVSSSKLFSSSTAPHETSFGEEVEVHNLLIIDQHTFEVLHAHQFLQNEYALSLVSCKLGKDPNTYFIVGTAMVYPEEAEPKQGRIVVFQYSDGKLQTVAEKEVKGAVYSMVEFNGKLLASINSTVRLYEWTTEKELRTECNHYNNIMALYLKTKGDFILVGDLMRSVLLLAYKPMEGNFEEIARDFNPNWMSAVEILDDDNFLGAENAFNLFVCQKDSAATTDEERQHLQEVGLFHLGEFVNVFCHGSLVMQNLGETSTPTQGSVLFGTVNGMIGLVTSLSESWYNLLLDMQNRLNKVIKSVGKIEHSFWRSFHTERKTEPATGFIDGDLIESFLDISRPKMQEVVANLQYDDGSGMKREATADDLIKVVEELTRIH
Compound,DC50 [1] [nM],DC50 [2] [nM],Emax [3] [%],DC50 [4] [nM],DC50 [5] [nM],Emax [6] [%],DC50 [7] [nM],Emax [8] [%],DC50 [9] [nM],"Emax (read-out: HiBiT-Degradation A375.10 BRAF 2 hours Emax, A375.10 cells, BRAF V600E, 2 hours, residual protein remaining) [%]"
"CO[C@@H]1CCN(S(=O)(=O)Nc2ccc(F)c(Oc3ccc4ncn([C@H]5COC6(CCN(C7CCC(c8cc9c(cc8F)c(N8CCC(=O)NC8=O)nn9C)CC7)CC6)C5)c(=O)c4c3)c2C#N)C1 (single isomer, unassigned) [Compound 100]",< 1000,< 1000,< 50,< 1000,< 1000,< 50,< 1000,< 50,< 1000,–
"CN(CCO)S(=O)(=O)Nc1ccc(F)c(Oc2ccc3ncn(C4CC5(CCN(C6CCC(c7cc8c(cc7F)c(N7CCC(=O)NC7=O)nn8C)CC6)CC5)C4)c(=O)c3c2)c1C#N (single isomer, unassigned) [Compound 81, 6-[2-cyano-6-fluoro-3-[[2-hydroxyethyl(methyl)sulfamoyl]amino]phenoxy]-3-[7-[4-[3-(2,4-dioxohexahydropyrimidin-1-yl)-5-fluoro-1-methyl-indazol-6-yl]cyclohexyl]-7-azaspiro[3.5]nonan-2-yl]-4-oxo-quinazoline]",< 1000,< 1000,50 to 90,< 1000,< 1000,< 50,< 1000,< 50,< 1000,–
"CO[C@H]1CCN(S(=O)(=O)Nc2ccc(F)c(Oc3ccc4ncn([C@H]5COC6(CCN(C7CC8(C7)CN(c7cc9c(cc7F)c(N7CCC(=O)NC7=O)nn9C)C8)CC6)C5)c(=O)c4c3)c2C#N)C1 [Compound 157, (3S)-N-[2-cyano-3-[3-[(3R)-8-[2-[3-(2,4-dioxohexahydropyrimidin-1-yl)-5-fluoro-1-methyl-indazol-6-yl]-2-azaspiro[3.3]heptan-6-yl]-1-oxa-8-azaspiro[4.5]decan-3-yl]-4-oxo-quinazolin-6-yl]oxy-4-fluoro-phenyl]-3-methoxy-pyrrolidine-1-sulfonamide]",< 1000,< 1000,–,< 1000,< 1000,< 50,< 1000,< 50,< 1000,50 to 90
"CN(CCO)S(=O)(=O)Nc1ccc(F)c(Oc2ccc3ncn([C@H]4COC5(CCN(C6CCC(c7ccc(NC8CCC(=O)NC8=O)cc7F)CC6)CC5)C4)c(=O)c3c2)c1C#N (single isomer, unassigned) [Compound 76]",< 1000,< 1000,< 50,< 1000,< 1000,< 50,< 1000,< 50,< 1000,–
"CO[C@H]1CCN(S(=O)(=O)Nc2ccc(F)c(Oc3ccc4ncn(C5CC6(CCN(C7CCC(c8cc9c(cc8F)c(N8CCC(=O)NC8=O)nn9C)CC7)CC6)C5)c(=O)c4c3)c2C#N)C1 (single isomer, unassigned) [Compound 103]",< 1000,< 1000,< 50,< 1000,< 1000,< 50,< 1000,< 50,< 1000,–
